# Results published in US4937371A, “Dihydroxynaphthalene derivatives” (Hoffmann-La Roche Inc., priority 1989, dated 1990).
# Experiments:
# [1] = system: Myeloperoxidase accumulation (rat acetic acid colitis model); test: Acetic acid-induced colitis in rats, in vivo; design: species or system rat (Sprague-Dawley)
# Text: Acetic Acid-Induced Colitis in Rats, In Vivo
# The rat acetic acid-induced colitis bioassay has been described by J. E. Krawisz, et al. in Amer. J. Proc. Gastro. Col. Rec. Surg. 31: 11-18 (1980), and by P. Sharon and W. F. Stenson in Gastroenterolgy 88: 55-63 (1985) and 86:453-460 (1984). Acetic acid-induced colitis is characterized by the movement of inflammatory cells into the colon, with the number of such cells in the mucosa being measured by the activity of myeloperoxidase, a marker enzyme for these cells. Positive desirable activity is indicated by a reduction in the high levels of myeloperoxidase caused by acetic acid. Male rats (Sprague-Dawley), weighing 150 to 300 g, were pretreated twice daily for two days with either the vehicle (water, or dimethylsulfoxide) or the test inhibitor compound suspended in water or dissolved in dimethylsulfoxide and orally administered. On the third day, the animals were dosed the same as on the previous two days, anesthetized with metofane, and 2 ml of 2.5% acetic acid was injected by syringe into the colonic lumen, followed immediately by 3 ml of air and a rinse consisting of 3 ml of phosphate-buffered saline (the acetic acid is Present in the lumen for a sufficient period to cause inflammation without producing severe necrosis or irreversible damage). The animals were administered a second dose of the test compound in the same amount about 16 hours later. Twenty four hours after the acetic acid treatment, the animals were sacrificed, the colonic mucosa was surgically removed and homogenized in an aqueous buffer at pH 6 with a Tissumizer or similar device, and myeloperoxidase was measured in the homogenate using o-phenylenediamine as a chromagen, as described by A. Voller, D. E. Bidwell and A. Bartlett in The Enzyme Linked Immunosorbent Assay (ELISA), Zoological Soc., London, 1979, pages 29-30. Control animals were pretreated with the vehicle and saline in place of acetic acid.
# [2] = molecular target: T1, Δ^5 -lipoxygenase from rat basophilic leukemia (RBL-1) cells (Rattus norvegicus, UniProt P12527); test: In vitro test for Δ^5-lipoxygenase inhibitors (RBL-1 cell supernatant); format: biochemical; settings: Δ^5-lipoxygenase from RBL-1 cells; 10 min preincubation at 30° C.; 6.7 μM arachidonic acid; 37° C.; pH 7.2
# T1 construct: The Δ^5 -lipoxygenase was derived from the supernatant fraction of lysed RBL-1 cells; endogenous in cells; host or cells: RBL-1 (rat basophilic leukemia) cells, 49,000 g supernatant of the homogenate
# T1 sequence (P12527 1-673): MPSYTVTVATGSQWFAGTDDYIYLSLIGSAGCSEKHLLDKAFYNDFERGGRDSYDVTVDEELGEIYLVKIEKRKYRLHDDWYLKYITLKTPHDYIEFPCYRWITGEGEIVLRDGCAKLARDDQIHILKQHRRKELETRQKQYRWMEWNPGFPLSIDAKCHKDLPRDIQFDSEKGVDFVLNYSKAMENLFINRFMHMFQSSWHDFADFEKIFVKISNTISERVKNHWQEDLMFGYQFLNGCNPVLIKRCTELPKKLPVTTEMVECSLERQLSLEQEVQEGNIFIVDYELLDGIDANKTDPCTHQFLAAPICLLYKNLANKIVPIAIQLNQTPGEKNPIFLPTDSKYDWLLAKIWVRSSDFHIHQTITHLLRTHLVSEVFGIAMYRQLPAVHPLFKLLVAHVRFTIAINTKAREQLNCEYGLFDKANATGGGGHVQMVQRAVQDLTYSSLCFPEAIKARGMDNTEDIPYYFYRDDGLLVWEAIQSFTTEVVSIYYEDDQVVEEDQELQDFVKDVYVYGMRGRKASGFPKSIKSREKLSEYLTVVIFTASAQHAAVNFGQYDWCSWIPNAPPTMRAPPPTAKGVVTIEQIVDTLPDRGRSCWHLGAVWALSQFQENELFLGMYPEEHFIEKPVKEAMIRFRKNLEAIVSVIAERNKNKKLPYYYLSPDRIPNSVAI
# Experimental: IN VITRO TEST FOR Δ^5 -LIPOXYGENASE INHIBITORS
# Compounds of formula I of the invention were tested for their effect on Δ^5 -lipoxygenase from rat basophilic leukemia (RBL-1) cells. The activity of this enzyme was determined by measuring the catalytic conversion of [1-^14 C]arachidonic acid to [1-^14 C-5-hydroperoxy- 6,8,11,14-eicosatetraenoic acid ([1-^14 C]-5-HPETE) which leads to the formation of the 5-hydroxy derivative ([1-^14 C]-5-HETE). The Δ^5 -lipoxygenase was derived from the supernatant fraction of lysed RBL-1 cells using a modification of the method previously described by Jakschik and Lee [Nature 287:51 (1980)]. Briefly, RBL-1 cells were lysed by homogenization in ice-cold buffer (50 mM Tris-HCl buffer, pH 7.2, containing 1 mM EDTA and 14 μM indomethacin). The homogenate was centrifuged at 4° C. and 49,000 g for 20 minutes and the resulting supernatant fraction was used as the source of Δ^5 -lipoxygenase. […] The ethereal extract containing [1-^14 C]-5-HETE and unreacted substrate analyzed by silica gel TLC using isooctane-methylethyl ketone acetic acid (100:9:1) as the developing solvent. […] The effect of inhibitors on Δ^5 -lipoxygenase activity was determined by preincubating the enzyme for 10 minutes at 30° C. in the presence or absence of various concentrations of the drug prior to addition of substrate. […]
# [3] = system: LTB4 formation (Δ^5 -lipoxygenase (5-LO) pathway); test: Rat peritoneal macrophage assay, in vitro: LTB4 formation; format: cell-based; settings: 0.5 h, rat peritoneal macrophages, 30 min incubation, A 23187-stimulated
# Text: (§1) RAT PERITONEAL MACROPHAGE ASSAY, IN VITRO
# (§2) The rat peritoneal macrophage assay measures the ability of a test compound to influence the release of arachidonic acid (AA) from phospholipid stores in the plasma membrane and the subsequent metabolism of AA by the Δ^5 -lipoxygenase (5-LO) and cyclooxygenase (CO) pathways to the final products excreted by the cells: leukotriene B4 (LTB4, from the 5-LO pathway) and prostaglandin E2 (PGE2, from the CO Pathway).
# (§3) Macrophages were obtained from rats by peritoneal lavage with phosphate buffered saline minus Ca^+2 and Mg^+2 (PBS). Cells were washed 3 times with PBS and resuspended in Delbecco's Modified Eagle medium (Gibco Laboratories) containing L-glutamine and D-glucose and supplemented with 10% fetal calf serum. Cells were counted on a Coulter ZBA cell counter and then resuspended to a concentration of 4×10^6 cells/mL. […] The extracellular fluid was removed and ^14 C radioactivity released into this fluid from AA metabolism was measured by liquid scintillation spectroscopy. The amounts of LTB4 and PGE2 were measured in the extracellular fluid by radioimmunoassay with specific antisera. […]
# (§4) This assay measures inhibition by the test compounds of the 5-LO and the CO pathways of AA metabolism and this inhibition is expressed as an IC50 for LTB4 and PGE2 formation, respectively.
# [4] = system: PGE2 formation (cyclooxygenase (CO) pathway); test: Rat peritoneal macrophage assay, in vitro: PGE2 formation; format: cell-based; settings: 0.5 h, rat peritoneal macrophages, 30 min incubation, A 23187-stimulated
# Text: as §1, §2, §3, §4
Structure (SMILES),% Inhibition of Myeloperoxidase Accumulation ([1]; 10 mg/kg p.o.),% Inhibition of Myeloperoxidase Accumulation ([1]; 1 mg/kg p.o.),further results
"CCCc1c(OCCc2ccc3cc(O)c(O)cc3c2)ccc(C(=O)O)c1O [4-[2-(6,7-Dihydroxy-2-naphthalenyl)ethoxy]-2-hydroxy-3-propylbenzoic acid]",60 ± 13%,–,–
"CCCc1c(OCCCc2ccc3cc(O)c(O)cc3c2)ccc(C(=O)O)c1O [4-[3-(6,7-Dihydroxy-2-naphthalenyl)propoxy]-2-hydroxy-3-propylbenzoic acid]",–,21 ± 4%,–
"CCCc1c(OCCCCc2ccc3c(Cl)c(O)c(O)c(Cl)c3c2)ccc(C(=O)O)c1O [4-[4-(5,8-Dichloro-6,7-dihydroxy-2-naphthalenyl)butoxy]-2-hydroxy-3-propylbenzoic acid]",71 ± 7%,–,–
"CCCc1c(OCCCCc2ccc3cc(O)c(O)cc3c2)ccc(C(=O)O)c1O [4-[4-(6,7-Dihydroxy-2-naphthalenyl)butoxy]-2-hydroxy-3-propylbenzoic acid]",–,–,IC50 [2]: 0.0047 µM; IC50 [3]: 3 µM; IC50 [4]: 2 µM; % Inhibition of Myeloperoxidase Accumulation ([1]; 3 mg/kg p.o.): 82 ± 8%
"CCCc1c(OCCCCCc2ccc3cc(O)c(O)cc3c2)ccc(C(=O)O)c1O [4-[5-(6,7-Dihydroxy-2-naphthalenyl)pentyloxy]-2-hydroxy-3-propylbenzoic acid]",56 ± 11%,–,–
"O=C(O)c1ccc(OCCCCCCc2ccc3cc(O)c(O)cc3c2)cc1O [4-[6-(6,7-Dihydroxy-2-naphthalenyl)hexyloxy]-2-hydroxybenzoic acid]",–,65 ± 9%,–
"O=C(O)c1ccc(OCCCCCCc2ccc3cc(O)c(O)cc3c2)cc1 [4-[6-(6,7-Dihydroxy-2-naphthalenyl)hexyloxy]benzoic acid]",68 ± 13%,–,–
"CCCc1c(OCCCCCCc2ccc3cc(O)c(O)cc3c2)ccc(C(=O)O)c1O [4-[6-(6,7-dihydroxy-2-naphthalenyl)hexyloxy]-2-hydroxy-3-propylbenzoic acid]",–,46 ± 12%,–
"CCCc1c(OCCCCC(=O)c2ccc3cc(O)c(O)cc3c2)ccc(C(=O)O)c1O [4-[[5-(6,7-Dihydroxy-2-naphthalenyl)-5-oxopentyl]oxy]-2-hydroxy-3-propylbenzoic acid]",–,–,% Inhibition of Myeloperoxidase Accumulation ([1]; 30 mg/kg p.o.): 80 ± 18%
"CCCc1c(OCCCCCC(=O)c2ccc3cc(O)c(O)cc3c2)ccc(C(=O)O)c1O [4-[[6-(6,7-dihydroxy-2-naphthalenyl)-6-oxohexyl]oxy]-2-hydroxy-3-propylbenzoic acid]",–,–,IC50 [3]: 3 µM; IC50 [4]: 2 µM
